In patent publication US12225903B2, “Synergistic cleaning disinfectant solution with enhanced stability, and methods of using the same” (Diversey, Inc., priority 2019, dated 2025):
Where two headings read alike, the source gives them in different places.

Tests used:
[1] = test system: bacteria Staphylococcus aureus, Escherichia coli, and Lactobacillus brevis; assay: Amount of antimicrobial acid required to pass EN1276:2009 (antibacterial activity); format: cell-based; conditions: gluconic and salicylic acid used in combination
Source text: To pass the EN1276 test method, a log reduction of greater than or equal to 5 must be achieved in five minutes.

[2] = test system: fungus Aspergillus niger and yeast Saccharomyces cerevisiae; assay: Amount of antimicrobial acid required to pass EN1650:2008 (antifungal activity); format: cell-based; conditions: gluconic and salicylic acid used in combination
Source text: To pass the EN 1650:2008 antimicrobial testing protocol, a log reduction of greater than or equal to 4 must be achieved in fifteen minutes.

[3] = in combination with gluconic acid

Structure (SMILES)	Concentration of Antimicrobial Acids required to pass ([1]; Clean, 4° C.) [ppm]	Concentration of Antimicrobial Acids required to pass ([1]; Clean, 25° C.) [ppm]	Concentration of Antimicrobial Acids required to pass ([1]; Dirty, 4° C.) [ppm]	Concentration of Antimicrobial Acids required to pass ([1]; Dirty, 25° C.) [ppm]	Concentration of Antimicrobial Acids required to pass ([2]; Clean, 4° C.) [ppm]	Concentration of Antimicrobial Acids required to pass ([2]; Clean, 25° C.) [ppm]	Concentration of Antimicrobial Acids required to pass ([2]; Dirty, 4° C.) [ppm]	Concentration of Antimicrobial Acids required to pass ([2]; Dirty, 25° C.) [ppm]	required amount of salicylic acid in the disclosed cleaning disinfectant solution [3]	required amount of salicylic acid in the disclosed cleaning disinfectant solution ([3]; to pass EN1276:2009 and EN1650:2008)
O=C(O)[C@H](O)[C@@H](O)[C@H](O)[C@H](O)CO [Gluconic Acid, Gluconic acid]	300	150	300	150	750	600	750	750		
O=C(O)c1ccccc1O [Salicylic Acid, Salicylic acid]	75	37	75	37	188	150	188	188	less than 2 % by weight	less than 2 wt %
